# Assay results reported in PubChem BioAssay (NCI).
#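 All cell lines were grown in 96-well plates and treated with compound for 48 hours. GI50: concentration for 50% inhibition of growth. The concentration for full growth arrest is given as TGI.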
# What was measured:
# Test in all cases: NCI tumour cell line growth inhibition, 48 h
# HT29 colon = tested on: HT29 colon
# OVCAR-5 ovarian = tested on: OVCAR-5 ovarian
# HOP-92 NSCLC = tested on: HOP-92 NSCLC
# SK-MEL-28 melanoma = tested on: SK-MEL-28 melanoma
# MALME-3M melanoma = tested on: MALME-3M melanoma
# UO-31 renal = tested on: UO-31 renal
# K-562 leukemia = tested on: K-562 leukemia
# RPMI-8226 leukemia = tested on: RPMI-8226 leukemia
# COLO 205 colon = tested on: COLO 205 colon
# A498 renal = tested on: A498 renal
# EKVX NSCLC = tested on: EKVX NSCLC
# SK-OV-3 ovarian = tested on: SK-OV-3 ovarian
# SK-MEL-2 melanoma = tested on: SK-MEL-2 melanoma
# MDA-MB-231 breast = tested on: MDA-MB-231 breast
# SNB-75 CNS = tested on: SNB-75 CNS
# SF-539 CNS = tested on: SF-539 CNS
# OVCAR-8 ovarian = tested on: OVCAR-8 ovarian
# IGROV1 ovarian = tested on: IGROV1 ovarian
# HCC-2998 colon = tested on: HCC-2998 colon
# HCT-116 colon = tested on: HCT-116 colon
# NCI-H522 lung = tested on: NCI-H522 lung
# CAKI-1 renal = tested on: CAKI-1 renal
# OVCAR-4 ovarian = tested on: OVCAR-4 ovarian
# OVCAR-3 ovarian = tested on: OVCAR-3 ovarian
# NCI-H226 lung = tested on: NCI-H226 lung
# SN12C renal = tested on: SN12C renal
# RXF 393 renal = tested on: RXF 393 renal
# M14 melanoma = tested on: M14 melanoma
# SF-295 CNS = tested on: SF-295 CNS
# HS 578T breast = tested on: HS 578T breast
# PC-3 prostate = tested on: PC-3 prostate
# KM12 colon = tested on: KM12 colon
# NCI/ADR-RES ovarian = tested on: NCI/ADR-RES ovarian
# HCT-15 colon = tested on: HCT-15 colon
# SNB-19 CNS = tested on: SNB-19 CNS
# T-47D breast = tested on: T-47D breast
# NCI-H460 lung = tested on: NCI-H460 lung
# UACC-62 melanoma = tested on: UACC-62 melanoma
# A549 NSCLC = tested on: A549 NSCLC
# MCF7 breast = tested on: MCF7 breast
# SR leukemia = tested on: SR leukemia
# UACC-257 melanoma = tested on: UACC-257 melanoma
# HOP-62 NSCLC = tested on: HOP-62 NSCLC
# HL-60(TB) leukemia = tested on: HL-60(TB) leukemia
# SK-MEL-5 melanoma = tested on: SK-MEL-5 melanoma
# SF-268 CNS = tested on: SF-268 CNS
# 786-0 renal = tested on: 786-0 renal
# TK-10 renal = tested on: TK-10 renal
# ACHN renal = tested on: ACHN renal
# MOLT-4 leukemia = tested on: MOLT-4 leukemia
# NCI-H23 lung = tested on: NCI-H23 lung
# DU-145 prostate = tested on: DU-145 prostate
# U251 CNS = tested on: U251 CNS
# BT-549 breast = tested on: BT-549 breast
# SW-620 colon = tested on: SW-620 colon
# MDA-MB-435 = tested on: MDA-MB-435
# CCRF-CEM leukemia = tested on: CCRF-CEM leukemia
smiles,measurement,setting,value
Cn1ccnc1C(=O)/C=C/c1ccc(NC(=O)Nc2ccccc2)cc1,GI50,HT29 colon,15.9 µM
same,TGI,HT29 colon,31 µM
same,GI50,OVCAR-5 ovarian,19.9 µM
same,TGI,OVCAR-5 ovarian,55.1 µM
same,GI50,HOP-92 NSCLC,20.6 µM
same,TGI,HOP-92 NSCLC,69.1 µM
same,GI50,SK-MEL-28 melanoma,16.2 µM
same,TGI,SK-MEL-28 melanoma,32.8 µM
same,GI50,MALME-3M melanoma,18.3 µM
same,TGI,MALME-3M melanoma,50.7 µM
same,GI50,UO-31 renal,14.3 µM
same,TGI,UO-31 renal,29.4 µM
same,GI50,K-562 leukemia,8.29 µM
same,TGI,K-562 leukemia,> 100 µM
same,GI50,RPMI-8226 leukemia,16 µM
same,TGI,RPMI-8226 leukemia,54.8 µM
same,GI50,COLO 205 colon,16.9 µM
same,TGI,COLO 205 colon,31.6 µM
same,GI50,A498 renal,21.3 µM
same,TGI,A498 renal,65.6 µM
same,GI50,EKVX NSCLC,22.6 µM
same,TGI,EKVX NSCLC,63.4 µM
same,GI50,SK-OV-3 ovarian,32.5 µM
same,TGI,SK-OV-3 ovarian,> 100 µM
same,GI50,SK-MEL-2 melanoma,16.8 µM
same,TGI,SK-MEL-2 melanoma,36 µM
same,GI50,MDA-MB-231 breast,16.9 µM
same,TGI,MDA-MB-231 breast,34 µM
same,GI50,SNB-75 CNS,12.9 µM
same,TGI,SNB-75 CNS,26 µM
same,GI50,SF-539 CNS,13.9 µM
same,TGI,SF-539 CNS,28.5 µM
same,GI50,OVCAR-8 ovarian,25 µM
same,TGI,OVCAR-8 ovarian,> 100 µM
same,GI50,IGROV1 ovarian,19.1 µM
same,TGI,IGROV1 ovarian,64.1 µM
same,GI50,HCC-2998 colon,14.7 µM
same,TGI,HCC-2998 colon,28.6 µM
same,GI50,HCT-116 colon,13.3 µM
same,TGI,HCT-116 colon,26.6 µM
same,GI50,NCI-H522 lung,13 µM
same,TGI,NCI-H522 lung,27.3 µM
same,GI50,CAKI-1 renal,20.8 µM
same,TGI,CAKI-1 renal,99.3 µM
same,GI50,OVCAR-4 ovarian,20.2 µM
same,TGI,OVCAR-4 ovarian,> 100 µM
same,GI50,OVCAR-3 ovarian,29 µM
same,TGI,OVCAR-3 ovarian,> 100 µM
same,GI50,NCI-H226 lung,22.9 µM
same,TGI,NCI-H226 lung,> 100 µM
same,GI50,SN12C renal,14.9 µM
same,TGI,SN12C renal,40.4 µM
same,GI50,RXF 393 renal,12.7 µM
same,TGI,RXF 393 renal,27 µM
same,GI50,M14 melanoma,20.8 µM
same,TGI,M14 melanoma,58.5 µM
same,GI50,SF-295 CNS,14.8 µM
same,TGI,SF-295 CNS,46.4 µM
same,GI50,HS 578T breast,33.7 µM
same,TGI,HS 578T breast,> 100 µM
same,GI50,PC-3 prostate,18.4 µM
same,TGI,PC-3 prostate,49.5 µM
same,GI50,KM12 colon,18.1 µM
same,TGI,KM12 colon,41.8 µM
same,GI50,NCI/ADR-RES ovarian,29 µM
same,TGI,NCI/ADR-RES ovarian,> 100 µM
same,GI50,HCT-15 colon,7.16 µM
same,TGI,HCT-15 colon,27.2 µM
same,GI50,SNB-19 CNS,16.7 µM
same,TGI,SNB-19 CNS,42.8 µM
same,GI50,T-47D breast,23.4 µM
same,TGI,T-47D breast,> 100 µM
same,GI50,NCI-H460 lung,17.2 µM
same,TGI,NCI-H460 lung,47.8 µM
same,GI50,UACC-62 melanoma,15.3 µM
same,TGI,UACC-62 melanoma,30.8 µM
same,GI50,A549 NSCLC,21.8 µM
same,TGI,A549 NSCLC,> 100 µM
same,GI50,MCF7 breast,15.6 µM
same,TGI,MCF7 breast,86.3 µM
same,GI50,SR leukemia,4.9 µM
same,TGI,SR leukemia,75.3 µM
same,GI50,UACC-257 melanoma,16.1 µM
same,TGI,UACC-257 melanoma,38.8 µM
same,GI50,HOP-62 NSCLC,24.1 µM
same,TGI,HOP-62 NSCLC,69.2 µM
same,GI50,HL-60(TB) leukemia,15.6 µM
same,TGI,HL-60(TB) leukemia,69.1 µM
same,GI50,SK-MEL-5 melanoma,15.7 µM
same,TGI,SK-MEL-5 melanoma,29.4 µM
same,GI50,SF-268 CNS,28.7 µM
same,TGI,SF-268 CNS,> 100 µM
same,GI50,786-0 renal,19.1 µM
same,TGI,786-0 renal,47.3 µM
same,GI50,TK-10 renal,29.8 µM
same,TGI,TK-10 renal,> 100 µM
same,GI50,ACHN renal,23.1 µM
same,TGI,ACHN renal,72 µM
same,GI50,MOLT-4 leukemia,16.5 µM
same,TGI,MOLT-4 leukemia,85.1 µM
same,GI50,NCI-H23 lung,16.1 µM
same,TGI,NCI-H23 lung,37.3 µM
same,GI50,DU-145 prostate,12.5 µM
same,TGI,DU-145 prostate,32.5 µM
same,GI50,U251 CNS,13.6 µM
same,TGI,U251 CNS,29.6 µM
same,GI50,BT-549 breast,13.6 µM
same,TGI,BT-549 breast,29.9 µM
same,GI50,SW-620 colon,18.7 µM
same,TGI,SW-620 colon,54.3 µM
same,GI50,MDA-MB-435,21.6 µM
same,TGI,MDA-MB-435,58.3 µM
same,GI50,CCRF-CEM leukemia,21.5 µM
same,TGI,CCRF-CEM leukemia,> 100 µM
